In patent publication US20130102535A1, “Method for Preventing Myocardial Ischemia” (Shanghai Bajiayi Pharmaceutical Science and Technology Co. …, priority 2009, published 2013):
Values joined by “and” are separate entries in the source; they are usually repeats but may differ in a detail not shown here. Equal entries are not always repeated.

Tests used:
[1] = system: rat myocardial ischemia models induced by coronary artery ligation; test: Myocardial infarction area of rats after coronary artery ligation (N-BT staining); assay type: in vivo, Sprague-Dawley male rats; conditions: 5 hours after coronary artery ligation, x ± SD
Text: Sprague-Dawley male rats of clean grade weighting 200-220 g were supplied by the animal experimental center of the Second Military Medical University (license number: SCXK (Shanghai)-2007-0003). • 2.1.2 Experimental groups
Experimental rats were randomly divided into four groups: sham group: n=8, model group: n=9, MLIF low-dose group: n=11, MLIF high-dose group: n=12. The dose of medicine could be administrated according to rat body weight. MLIF low-dose group and MLIF high-dose group were administrated by tail intravenous injection prepared with normal saline as solvent at the dose of 0.15 mg/kg and 0.5 mg/kg, respectively. • 2.1.3 Coronary artery ligation and measurement of myocardial infarction area of rats
The Sprague-Dawley male rats were abdomen anesthetized with 25% urethane (0.4 ml/100 g) and fixated at supine position. The chest was cut open among the fifth rib at left, and then the fourth and fifth ribs were cut off along the left side of sterna at 2 mm. The pericardium was snipped off with heart exposed, and a 0/3 suture line was passed through the left anterior descending coronary artery. The rats were administrated by tail intravenous injection slowly. After 10 minutes, the left anterior descending coronary artery was ligated rapidly and the heart was returned to its chest, removing the air within the thorax by hand, closing the thorax and tightening the purse-string suture rapidly. The entire process of opening and closing chest was performed within 30 seconds. The coronary arteries of rats of sham group were not ligated since the myocardial ischemia would be caused by coronary artery ligation.
The rats were administrated by tail intravenous injection with the dose of 0.15 mg/kg (MLIF low-dose group) and 0.5 mg/kg (MLIF high-dose group) at 15 minutes after coronary artery ligation with the same volume of normal saline administrated in sham group and model group. Each group of animals was executed at 5 hours after coronary artery ligation. The heart was taken out and the heart ventricle muscle was transversely chipped into 5 slices, the cut position of which was parallel to coronary sulcus under the coronary artery ligation line. The five slices of the heart ventricle muscle were stained with Nitroblue tetrazolium (N-BT) for 15 minutes with shaking. The normal heart ventricle muscle was dyed into dark blue while that of the area of myocardial infarction was unstained with normally light yellow. The area of myocardial infarction was isolated by a dissecting microscope and the whole heart weight, the left ventricle weight and the area of myocardial infarction weight were weighed, respectively, the percent (%) of area of myocardial infarction weight to whole heart weight were quantified as an measure on myocardial infarction area ranges. • 2.1.4 Data and statistics analysis
(§1) All experimental data are given as x±SD. Differences between the groups were calculated by analysis of variance (SPSS 10.0).

[2] = system: acute myocardial ischemia rats (coronary artery ligation); test: Serum creatine kinase (CK) and lactic dehydrogenase (LDH) of acute myocardial ischemia rats; assay type: in vivo, Sprague-Dawley male rats; conditions: blood at 5 hours after coronary artery ligation, x ± SD; for LDH activity in blood serum: P < 0.01 vs model group; for CK activity in blood serum: P < 0.05 vs model group
Text: Sprague-Dawley male rats of clean grade weighting 200-220 g were supplied by the animal experimental center of the Second Military Medical University (license number: SCXK (Shanghai)-2007-0003). • 2.2.2 Experimental groups
Experimental rats were randomly divided into four groups: sham group: n=7, model group: n=8, MLIF low-dose group: n=8, MLIF high-dose group: n=9. The dose of medicine could be administrated according to rat body weight. MLIF low-dose group and MLIF high-dose group were administrated by tail intravenous injection prepared with normal saline as solvent at the dose of 0.15 mg/kg and 0.5 mg/kg, respectively. • 2.2.3 Coronary artery ligation and determination of CK and LDH in blood serum
Coronary artery ligations of rats were carried out as described previously. 3m1 blood sample of each animal was taken from femoral artery at 5 hours after coronary artery ligation and the blood serum was collected according to the method of convengtional centrifugalization. The creatine kinase (CK) and lactic dehydrogenase (LDH) activities in blood serum were measured by semi-automatic biochemical analyzer. • 2.2.4 Data and statistics analysis
as §1

[3] = MLIF high-dose group 0.5 mg/kg tail i.v.
[4] = MLIF high-dose group 0.5 mg/kg tail i.v., P < 0.01 vs model group
[5] = MLIF low-dose group 0.15 mg/kg tail i.v.
[6] = MLIF low-dose group 0.15 mg/kg tail i.v., P < 0.05 vs model group

Met-Gln-Cys-Asn-Ser (MQCNS) [MLIF]
area of myocardial infarction weight [1, 3]: 158 ± 22.4^ΔΔ mg | area of myocardial infarction/ left ventricle [1, 4]: 30±3.7% and 30 ± 3.7^ΔΔ, ** % | area of myocardial infarction/ whole heart [1, 4]: 20±2.7% and 20 ± 2.7^ΔΔ, ** % | area of myocardial infarction weight [1, 5]: 187 ± 22.8^ΔΔ mg | area of myocardial infarction/ left ventricle [1, 6]: 33±3.2% and 33 ± 3.2^ΔΔ, * % | area of myocardial infarction/ whole heart [1, 6]: 22±1.9% and 22 ± 1.9^ΔΔ, * % | LDH activity in blood serum [2, 3]: 3642±817 IU/L and 3642 ± 817^ΔΔ, ** IU/L | CK activity in blood serum [2, 3]: 5244±1787.8 IU/L and 5244 ± 1787.8^ΔΔ, * IU/L | LDH activity in blood serum [2, 5]: 3156±864.1 IU/L and 3156 ± 864.1^ΔΔ, ** IU/L | CK activity in blood serum [2, 5]: 5258±2114.3 IU/L and 5258 ± 2114.3^ΔΔ, * IU/L
